Data set [1] is described as follows: Obese mouse model (60% fat diet), initial study: food intake, body composition by MRI, physical activity. Also noted: species or system C57B1/6J mice. As to conditions: in vivo. As to the method:
C57B1/6J mice at 5-6 weeks of age were fed a 60% fat diet for 14 weeks and reached an average body weight of 49 grams at the start of dosing, as an obese mouse model. Employing a modified 3×3 factorial design, groups of mice (n=8 per group) received a murinized version of bimagrumab, CDD866, at 0.3 mg/kg or 20 mg/kg intraperitoneally (i.p.) weekly and/or semaglutide at 5 μg/kg or 40 μg/kg subcutaneously (s.c.) daily. The high fat diet was continued through the treatment period, and food intake and body weight were monitored twice weekly. Clinical observations, body composition by MRI, and physical activity, were assessed once weekly.

The nature of data set [2]: Pharmacokinetics of semaglutide and CDD866 alone and combined in DIO mice. Format: in vivo. The note with it: analyte semaglutide, mean plasma; for MRT inf / MRT last: mouse; for MRT inf: read-out: MRT0-inf; for MRT last: read-out: MRT0-last. As to the method: Dedicated cohorts of diet induced obesity (DIO) mice were used. Blood sampling was performed at 5 time points, with 3 mice per time point.

The nature of data set [3]: DIO mice: CDD866 combined with semaglutide, liraglutide or tirzepatide (body weight, fat, lean mass, food intake, open field). It is filed as in vivo. As to conditions: Day 22, DIO mice; CDD866 20 mg/kg, semaglutide 40 μg/kg, tirzepatide 45/22.5 μg/kg (Table 4). As to the method:
DIO mice received a murinized version of bimagrumab, CDD866, at 20 mg/kg intraperitoneally (i.p.) weekly in combination with semaglutide (40 μg/kg once daily), liraglutide (40 μg/kg twice daily), or tirzepatide at 45 μg/kg once daily and after day 11, 22.5 μg/kg once daily) subcutaneously (s.c.). The GLP-1 agonists in this study were not dose escalated.

The conditions of data set [4]: overweight and obese patients; cited from earlier work.
The mark [5] stands for this setting: group CDD866-20 mpk + Semaglutide-40 ug/kg.

Where two headings read alike, the source gives them in different places.

Turning to `CC[C@H](C)[C@H](NC(=O)[C@H](Cc1ccccc1)NC(=O)[C@H](CCC(=O)O)NC(=O)[C@H](CCCCNC(=O)COCCOCCNC(=O)COCCOCCNC(=O)CC[C@H](NC(=O)CCCCCCCCCCCCCCCCC(=O)O)C(=O)O)NC(=O)[C@H](C)NC(=O)[C@H](C)NC(=O)[C@H](CCC(N)=O)NC(=O)CNC(=O)[C@H](CCC(=O)O)NC(=O)[C@H](CC(C)C)NC(=O)[C@H](Cc1ccc(O)cc1)NC(=O)[C@H](CO)NC(=O)[C@H](CO)NC(=O)[C@@H](NC(=O)[C@H](CC(=O)O)NC(=O)[C@H](CO)NC(=O)[C@@H](NC(=O)[C@H](Cc1ccccc1)NC(=O)[C@@H](NC(=O)CNC(=O)[C@H](CCC(=O)O)NC(=O)C(C)(C)NC(=O)[C@@H](N)Cc1cnc[nH]1)[C@@H](C)O)[C@@H](C)O)C(C)C)C(=O)N[C@@H](C)C(=O)N[C@@H](Cc1c[nH]c2ccccc12)C(=O)N[C@@H](CC(C)C)C(=O)N[C@H](C(=O)N[C@@H](CCCNC(=N)N)C(=O)NCC(=O)N[C@@H](CCCNC(=N)N)C(=O)NCC(=O)O)C(C)C` [Semaglutide, semaglutide], the clinical observations result in data set [1] is on record as “no clinical observations of concern”. In addition, in data set [2] (setting [5]), the Tlast amounted to 24.0 h, the MRT inf was determined as 16.6 h and the MRT last was 9.76 h. In data set [2] (group Semaglutide-5 ug/kg), the Tlast was 8.00 h and the MRT last amounted to 4.38 h. For the same molecule, in data set [2] (group Semaglutide-40 ug/kg), the Tlast is on record as 24.0 h, the MRT inf turned out to be 15.2 h and the MRT last is 10 h.
On to tirzepatide, for which, in data set [3], the “Body weight” value is given as 40.2 ± 1.3 g, the “Fat” value was 12.7 ± 1.4 g and the “Lean mass” value was 25.4 ± 0.4 g.

B1: Bimagrumab: ActRII receptor antibody, sequences SEQ ID NO: 1-10 (antibody, chains of the INN, looked up, V domains shown)
VH: QVQLVQSGAEVKKPGASVKVSCKASGYTFTSSYINWVRQAPGQGLEWMGTINPVSGSTSYAQKFQGRVTMTRDTSISTAYMELSRLRSDDTAVYYCARGGWFDYWGQGTLVTVSS
VL: QSALTQPASVSGSPGQSITISCTGTSSDVGSYNYVNWYQQHPGKAPKLMIYGVSKRPSGVSNRFSGSKSGNTASLTISGLQAEDEADYYCGTFAGGSYYGVFGGGTKLTVL
For B1, the “increase in muscle mass” value in data set [4] is given as 4-8%.

Source of the values: patent US20240325530A1, “COMBINATION THERAPIES” (Versanis Bio, Inc., priority 2021, published 2024).
